Assay results reported in patent USRE48335E1, “Polymyxin derivatives as antimicrobial compounds” (priority 2014, dated 2020).
Converted amounts (≈) assume the structure as drawn. Read-outs that look alike come from different tables or passages of the source. Positions of bridges follow the written chain, without caps; N, C: chain ends. Non-standard residues stand in square brackets, D forms with d. Residues, ends and D or L forms follow the SMILES beside them. *: point of attachment. Benzoyl(3,5-Cl2) = O=C(c1cc(Cl)cc(Cl)c1)*; Benzoyl(3-CF3) = O=C(c1cccc(C(F)(F)F)c1)*; X17 = Cc1cc(C(=O)*)cc(C(F)(F)F)c1; X20 = Cc1cc(C(=O)*)ccc1C(F)(F)F; dNle = CCCC[C@@H](N)C(=O)O; Dab = NCC[C@H](N)C(=O)O; Abu = CC[C@H](N)C(=O)O; Dap = NC[C@H](N)C(=O)O

Legend:
P. aeruginosa ATCC 27853 = experiment: In vivo efficacy in mouse blood infection model (neutropenic Swiss mice); settings: compound, free base 4 mg/kg intravenously 2 h after inoculation, blood at 4 h
How it was run: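 Neutropenic Swiss mice (cyclophosphamide 150 mg/kg day −4, 100 mg/kg day −1, i.p.) infected i.v. with early log-phase bacteria; 4 mg/kg free base i.v. given 2 h post-inoculation. Blood CFU by cardiac puncture 4 h post-dose; Δlog10 CFU/mL treated versus saline controls.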

Acinetobacter baumannii = system: Acinetobacter baumannii
How it was run: (§1)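 Read-out is the MIC, obtained by broth microdilution under CLSI guidance. Lipopeptides (TFA salt form) were diluted in cation-adjusted Mueller-Hinton broth, with polymyxin B sulphate run alongside as control.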

Enterobacter cloacae = system: Enterobacter cloacae
How it was run: as §1

Klebsiella pneumoniae = system: Klebsiella pneumoniae
How it was run: as §1

Pseudomonas aeruginosa = system: Pseudomonas aeruginosa
How it was run: as §1

[1] = Acinetobacter baumannii ATCC 17978, broth microdilution in CAMHB
[2] = Acinetobacter baumannii ATCC 19606, broth microdilution in CAMHB
[3] = Acinetobacter baumannii FADDI-AB034, broth microdilution in CAMHB
[4] = Enterobacter cloacae FADDI-EC001, broth microdilution in CAMHB
[5] = Enterobacter cloacae FADDI-EC003, broth microdilution in CAMHB
[6] = Enterobacter cloacae FADDI-EC006, broth microdilution in CAMHB
[7] = Pseudomonas aeruginosa ATCC 27853, broth microdilution in CAMHB
[8] = Pseudomonas aeruginosa FADDI-PA022, broth microdilution in CAMHB
[9] = Pseudomonas aeruginosa FADDI-PA025, broth microdilution in CAMHB

SMILES	Δ log (Treated-Control at 4 h) (P. aeruginosa ATCC 27853) [log10 CFU/mL]	MIC (Acinetobacter baumannii) [mg/L]	Minimum inhibitory concentration, Ab A ATCC 17978 (Acinetobacter baumannii) [mg/L]	Minimum inhibitory concentration, Ab ATCC 19606 (Acinetobacter baumannii) [mg/L]	Minimum inhibitory concentration, Ab FADDI-AB034 (Acinetobacter baumannii) [mg/L]	Minimum inhibitory concentration, Ec FADDI-EC001 (Enterobacter cloacae) [mg/L]	Minimum inhibitory concentration, Ec FADDI-EC003 (Enterobacter cloacae) [mg/L]	Minimum inhibitory concentration, Ec FADDI-EC006 (Enterobacter cloacae) [mg/L]	MIC (Klebsiella pneumoniae) [mg/L]	MIC (Pseudomonas aeruginosa) [mg/L]	Minimum inhibitory concentration, Pa ATCC 27853 (Pseudomonas aeruginosa) [mg/L]	Minimum inhibitory concentration, Pa FADDI-PA022 (Pseudomonas aeruginosa) [mg/L]	Minimum inhibitory concentration, Pa FADDI-PA025 (Pseudomonas aeruginosa) [mg/L]	other results
CC(C)C[C@H]1NC(=O)[C@H](CCN)NC(=O)[C@@H](NC(=O)[C@H](CN)NC(=O)[C@@H](NC(=O)[C@H](CCN)NC(=O)c2cc(Cl)cc(Cl)c2)[C@@H](C)O)CCNC(=O)[C@H]([C@@H](C)O)NC(=O)[C@H](CCN)NC(=O)[C@H](CCN)NC(=O)[C@H](C)NC1=O [Compound 117] ({Benzoyl(3,5-Cl2)}-[Dab]T[Dap][Dab][Dab][dL]A[Dab][Dab]T; lactam 4-C)	−2.99	–	–	–	–	–	–	–	–	–	–	–	–	MIC (Acinetobacter baumannii; A. baumannii ATCC 19606): 1 mg/L (≈ 0.872 µM); Minimum inhibitory concentration, Ab A ATCC 17978 (Acinetobacter baumannii; [1]): 0.25 mg/L (≈ 0.218 µM); Minimum inhibitory concentration, Ab ATCC 19606 (Acinetobacter baumannii; [2]): 1 mg/L (≈ 0.872 µM); Minimum inhibitory concentration, Ab FADDI-AB034 (Acinetobacter baumannii; [3]): 1 mg/L (≈ 0.872 µM); Minimum inhibitory concentration, Ec FADDI-EC001 (Enterobacter cloacae; [4]): 0.25 mg/L (≈ 0.218 µM); Minimum inhibitory concentration, Ec FADDI-EC003 (Enterobacter cloacae; [5]): 0.25 mg/L (≈ 0.218 µM); Minimum inhibitory concentration, Ec FADDI-EC006 (Enterobacter cloacae; [6]): 1 mg/L (≈ 0.872 µM); MIC (Klebsiella pneumoniae; K. pneumoniae FADDI-KP032): 0.25 mg/L (≈ 0.218 µM); MIC (Pseudomonas aeruginosa; P. aeruginosa ATCC 27853): 0.25 mg/L (≈ 0.218 µM); Minimum inhibitory concentration, Pa ATCC 27853 (Pseudomonas aeruginosa; [7]): 0.25 mg/L (≈ 0.218 µM); Minimum inhibitory concentration, Pa FADDI-PA022 (Pseudomonas aeruginosa; [8]): 2 mg/L (≈ 1.74 µM); Minimum inhibitory concentration, Pa FADDI-PA025 (Pseudomonas aeruginosa; [9]): 2 mg/L (≈ 1.74 µM)
CC(C)C[C@H]1NC(=O)[C@H](CCN)NC(=O)[C@@H](NC(=O)[C@H](CN)NC(=O)[C@@H](NC(=O)[C@H](CCN)NC(=O)c2cc(Cl)cc(Cl)c2)[C@@H](C)O)CCNC(=O)[C@H]([C@@H](C)O)NC(=O)[C@H](CCN)NC(=O)[C@H](CCN)NC(=O)[C@H]([C@@H](C)O)NC1=O [Compound 118] ({Benzoyl(3,5-Cl2)}-[Dab]T[Dap][Dab][Dab][dL]T[Dab][Dab]T; lactam 4-C)	−3.53	–	–	–	–	–	–	–	–	–	–	–	–	MIC (Acinetobacter baumannii; A. baumannii ATCC 19606): 2 mg/L (≈ 1.7 µM); Minimum inhibitory concentration, Ab A ATCC 17978 (Acinetobacter baumannii; [1]): >32 mg/L; Minimum inhibitory concentration, Ab ATCC 19606 (Acinetobacter baumannii; [2]): 2 mg/L (≈ 1.7 µM); Minimum inhibitory concentration, Ab FADDI-AB034 (Acinetobacter baumannii; [3]): 1 mg/L (≈ 0.85 µM); Minimum inhibitory concentration, Ec FADDI-EC001 (Enterobacter cloacae; [4]): 1 mg/L (≈ 0.85 µM); Minimum inhibitory concentration, Ec FADDI-EC003 (Enterobacter cloacae; [5]): 0.25 mg/L (≈ 0.213 µM); Minimum inhibitory concentration, Ec FADDI-EC006 (Enterobacter cloacae; [6]): 0.5 mg/L (≈ 0.425 µM); MIC (Klebsiella pneumoniae; K. pneumoniae FADDI-KP032): 0.25 mg/L (≈ 0.213 µM); MIC (Pseudomonas aeruginosa; P. aeruginosa ATCC 27853): 0.5 mg/L (≈ 0.425 µM); Minimum inhibitory concentration, Pa ATCC 27853 (Pseudomonas aeruginosa; [7]): 0.5 mg/L (≈ 0.425 µM); Minimum inhibitory concentration, Pa FADDI-PA022 (Pseudomonas aeruginosa; [8]): 2 mg/L (≈ 1.7 µM); Minimum inhibitory concentration, Pa FADDI-PA025 (Pseudomonas aeruginosa; [9]): 2 mg/L (≈ 1.7 µM)
CC[C@@H]1NC(=O)[C@@H](CC(C)C)NC(=O)[C@H](CCN)NC(=O)[C@@H](NC(=O)[C@H](CN)NC(=O)[C@@H](NC(=O)[C@H](CCN)NC(=O)c2ccc(C(F)(F)F)c(C)c2)[C@@H](C)O)CCNC(=O)[C@H]([C@@H](C)O)NC(=O)[C@H](CCN)NC(=O)[C@H](CCN)NC1=O [Compound 119] (X20-[Dab]T[Dap][Dab][Dab][dL][Abu][Dab][Dab]T; lactam 4-C)	−3.40	1 (≈ 0.852 µM)	0.5 (≈ 0.426 µM)	1 (≈ 0.852 µM)	0.25 (≈ 0.213 µM)	<0.125	<0.125	0.25 (≈ 0.213 µM)	<0.125	0.5 (≈ 0.426 µM)	0.5 (≈ 0.426 µM)	0.5 (≈ 0.426 µM)	2 (≈ 1.7 µM)	–
CC[C@@H]1NC(=O)[C@@H](CC(C)C)NC(=O)[C@H](CCN)NC(=O)[C@@H](NC(=O)[C@H](CN)NC(=O)[C@@H](NC(=O)[C@H](CCN)NC(=O)c2cc(C)cc(C(F)(F)F)c2)[C@@H](C)O)CCNC(=O)[C@H]([C@@H](C)O)NC(=O)[C@H](CCN)NC(=O)[C@H](CCN)NC1=O [Compound 120] (X17-[Dab]T[Dap][Dab][Dab][dL][Abu][Dab][Dab]T; lactam 4-C)	−3.20	1 (≈ 0.852 µM)	0.5 (≈ 0.426 µM)	1 (≈ 0.852 µM)	0.5 (≈ 0.426 µM)	0.25 (≈ 0.213 µM)	0.25 (≈ 0.213 µM)	0.25 (≈ 0.213 µM)	0.5 (≈ 0.426 µM)	1 (≈ 0.852 µM)	1 (≈ 0.852 µM)	1 (≈ 0.852 µM)	2 (≈ 1.7 µM)	–
CCCC[C@H]1NC(=O)[C@H](CCN)NC(=O)[C@@H](NC(=O)[C@H](CN)NC(=O)[C@@H](NC(=O)[C@H](CCN)NC(=O)c2cccc(C(F)(F)F)c2)[C@@H](C)O)CCNC(=O)[C@H]([C@@H](C)O)NC(=O)[C@H](CCN)NC(=O)[C@H](CCN)NC(=O)[C@H](CC)NC1=O [Compound 121] ({Benzoyl(3-CF3)}-[Dab]T[Dap][Dab][Dab][dNle][Abu][Dab][Dab]T; lactam 4-C)	−2.81	0.5 (≈ 0.431 µM)	0.5 (≈ 0.431 µM)	0.5 (≈ 0.431 µM)	0.5 (≈ 0.431 µM)	0.25 (≈ 0.216 µM)	0.25 (≈ 0.216 µM)	0.25 (≈ 0.216 µM)	0.25 (≈ 0.216 µM)	0.5 (≈ 0.431 µM)	0.5 (≈ 0.431 µM)	1 (≈ 0.863 µM)	2 (≈ 1.73 µM)	–
C[C@@H](O)[C@@H]1NC(=O)[C@H](CCN)NC(=O)[C@H](CCN)NC(=O)[C@H]([C@@H](C)O)NC(=O)[C@@H](Cc2ccccc2)NC(=O)[C@H](CCN)NC(=O)[C@@H](NC(=O)[C@H](CN)NC(=O)[C@@H](NC(=O)[C@H](CCN)NC(=O)c2cccc(C(F)(F)F)c2)[C@@H](C)O)CCNC1=O [Compound 124] ({Benzoyl(3-CF3)}-[Dab]T[Dap][Dab][Dab][dF]T[Dab][Dab]T; lactam 4-C)	−3.36	1 (≈ 0.827 µM)	1 (≈ 0.827 µM)	1 (≈ 0.827 µM)	0.25 (≈ 0.207 µM)	0.5 (≈ 0.413 µM)	<0.125	0.5 (≈ 0.413 µM)	0.25 (≈ 0.207 µM)	0.25 (≈ 0.207 µM)	0.25 (≈ 0.207 µM)	0.5 (≈ 0.413 µM)	2 (≈ 1.65 µM)	–
CCCC[C@H]1NC(=O)[C@H](CCN)NC(=O)[C@@H](NC(=O)[C@H](CN)NC(=O)[C@@H](NC(=O)[C@H](CCN)NC(=O)c2cccc(C(F)(F)F)c2)[C@@H](C)O)CCNC(=O)[C@H]([C@@H](C)O)NC(=O)[C@H](CCN)NC(=O)[C@H](CCN)NC(=O)[C@H](C)NC1=O [Compound 125] ({Benzoyl(3-CF3)}-[Dab]T[Dap][Dab][Dab][dNle]A[Dab][Dab]T; lactam 4-C)	−3.66	1 (≈ 0.873 µM)	1 (≈ 0.873 µM)	1 (≈ 0.873 µM)	0.5 (≈ 0.437 µM)	0.5 (≈ 0.437 µM)	0.5 (≈ 0.437 µM)	1 (≈ 0.873 µM)	0.25 (≈ 0.218 µM)	0.25 (≈ 0.218 µM)	0.25 (≈ 0.218 µM)	0.5 (≈ 0.437 µM)	2 (≈ 1.75 µM)	–
